From US9365548B2, “Benzoimidazol-2-yl pyrimidines and pyrazines as modulators of the histamine H4 receptor” (Janssen Pharmaceutica NV, priority 2006, dated 2016)

Biological target: T1, Recombinant Human Histamine H4 Receptor (Homo sapiens, UniProt Q9H3N8)
T1 construct: expressed in transfected cells; host or cells: SK-N-MC cells or COS7 cells, transiently transfected; cell membranes used
Assay: Binding Assay on Recombinant Human Histamine H4 Receptor
Details: competition binding with 3H-histamine, membranes of SK-N-MC or COS7 cells expressing human histamine H4 receptor; Ki by Cheng-Prusoff (KD 5 nM, ligand 5 nM); average of results obtained
From the text: Additional examples of embodiments of this invention are provided by hemitartrate salts of compounds of Formula (I) and by hydrates, such as monohydrates and dihydrates, of compounds of Formula (I). […]

T1 sequence (Q9H3N8 whole entry): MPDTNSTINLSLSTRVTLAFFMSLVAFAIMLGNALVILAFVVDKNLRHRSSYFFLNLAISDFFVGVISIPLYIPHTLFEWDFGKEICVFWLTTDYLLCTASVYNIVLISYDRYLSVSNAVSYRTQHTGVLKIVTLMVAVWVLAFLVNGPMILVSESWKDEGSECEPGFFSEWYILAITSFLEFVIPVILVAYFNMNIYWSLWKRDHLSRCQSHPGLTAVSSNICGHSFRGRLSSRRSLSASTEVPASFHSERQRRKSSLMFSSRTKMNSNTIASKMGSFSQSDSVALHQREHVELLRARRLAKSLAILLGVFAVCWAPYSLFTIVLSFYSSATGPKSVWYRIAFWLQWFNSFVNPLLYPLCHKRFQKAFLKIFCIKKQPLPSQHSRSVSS

Compound | Ki [µM]
CN1CCC(CCCNc2ncc(-c3nc4cc(F)c(F)cc4[nH]3)c(C(F)(F)F)n2)CC1 [Example 31, [5-(5,6-Difluoro-1H-benzoimidazol-2-yl)-4-trifluoromethyl-pyrimidin-2-yl]-[3-(1-methyl-piperidin-4-yl)-propyl]-amine] | 0.23
CC(C)c1nc(NCCCC2CCN(C)CC2)ncc1-c1nc2c(F)c(F)ccc2[nH]1 [Example 32, [5-(4,5-Difluoro-1H-benzoimidazol-2-yl)-4-isopropyl-pyrimidin-2-yl]-[3-(1-methyl-piperidin-4-yl)-propyl]-amine] | 6.11
Cc1c(F)ccc2[nH]c(-c3cnc(NCCCC4CCN(C)CC4)cn3)nc12 [Example 33, [5-(5-Fluoro-4-methyl-1H-benzoimidazol-2-yl)-pyrazin-2-yl]-[3-(1-methyl-piperidin-4-yl)-propyl]-amine] | 0.25
Cc1ccc2[nH]c(-c3cnc(NCCCC4CCN(C)CC4)cn3)nc2c1C [Example 34, [5-(4,5-Dimethyl-1H-benzoimidazol-2-yl)-pyrazin-2-yl]-[3-(1-methyl-piperidin-4-yl)-propyl]-amine] | 0.68
Cc1nc(NCCCC2CCN(C)CC2)ncc1-c1nc2c(C(F)(F)F)cc(C(F)(F)F)cc2[nH]1 [Example 35, [5-(4,6-Bis-trifluoromethyl-1H-benzoimidazol-2-yl)-4-methyl-pyrimidin-2-yl]-[3-(1-methyl-piperidin-4-yl)-propyl]-amine] | 0.011
Cc1nc(NCCCC2CCN(C)CC2)ncc1-c1nc2cc(C#N)ccc2[nH]1 [Example 36, 2-{4-Methyl-2-[3-(1-methyl-piperidin-4-yl)-propylamino]-pyrimidin-5-yl}-1H-benzoimidazole-5-carbonitrile] | 0.17
COc1ccc2[nH]c(-c3cnc(NCCCC4CCN(C)CC4)nc3C)nc2c1 [Example 37, [5-(5-Methoxy-1H-benzoimidazol-2-yl)-4-methyl-pyrimidin-2-yl]-[3-(1-methyl-piperidin-4-yl)-propyl]-amine] | 0.081
Cc1nc(NCCCC2CCN(C)CC2)ncc1-c1nc2c(Cl)cc(C(F)(F)F)cc2[nH]1 [Example 38, [5-(4-Chloro-6-trifluoromethyl-1H-benzoimidazol-2-yl)-4-methyl-pyrimidin-2-yl]-[3-(1-methyl-piperidin-4-yl)-propyl]-amine] | 0.002
Cc1nc(NCCCC2CCN(C)CC2)ncc1-c1nc2cc(Cl)c(F)cc2[nH]1 [Example 39, [5-(5-Chloro-6-fluoro-1H-benzoimidazol-2-yl)-4-methyl-pyrimidin-2-yl]-[3-(1-methyl-piperidin-4-yl)-propyl]-amine] | 0.015
Cc1nc(NCCCC2CCN(C)CC2)ncc1-c1nc2cc(Cl)ccc2[nH]1 [Example 40, [5-(5-Chloro-1H-benzoimidazol-2-yl)-4-methyl-pyrimidin-2-yl]-[3-(1-methyl-piperidin-4-yl)-propyl]-amine] | 0.007
Cc1nc(NCCCC2CCN(C)CC2)ncc1-c1nc2cc(Cl)c(Cl)cc2[nH]1 [Example 41, [5-(5,6-Dichloro-1H-benzoimidazol-2-yl)-4-methyl-pyrimidin-2-yl]-[3-(1-methyl-piperidin-4-yl)-propyl]-amine] | 0.006
CCc1nc(NCCCC2CCN(C)CC2)ncc1-c1nc2c(C)cc(C)cc2[nH]1 [Example 42, [5-(4,6-Dimethyl-1H-benzoimidazol-2-yl)-4-ethyl-pyrimidin-2-yl]-[3-(1-methyl-piperidin-4-yl)-propyl]-amine] | 0.022
CCc1nc(NCCCC2CCN(C)CC2)ncc1-c1nc2c(C)cccc2[nH]1 [Example 43, [4-Ethyl-5-(4-methyl-1H-benzoimidazol-2-yl)-pyrimidin-2-yl]-[3-(1-methyl-piperidin-4-yl)-propyl]-amine] | 0.11
Cc1cccc2[nH]c(-c3cnc(NCCCC4CCN(C)CC4)nc3C3CC3)nc12 [Example 44, [4-Cyclopropyl-5-(4-methyl-1H-benzoimidazol-2-yl)-pyrimidin-2-yl]-[3-(1-methyl-piperidin-4-yl)-propyl]-amine] | 0.56
